Reference: paper PMC6547681 (Nature Communications, 2019)
Values joined by “and” are separate entries in the source; they are usually repeats but may differ in a detail not shown here. Equal entries are not always repeated. Where two headings read alike, the source gives them in different places.

Test system: BCL-2 G101V
Test: Steady-state competition SPR against immobilised BIMBH3 peptide, BCL-2 G101V
Format: binding, human
Settings: for Ki: BCL-2 G101V
Experimental: SPR experiments were performed as previously described. […] The lowest concentrations used in direct binding experiments were 1 nM for BIAcore 4000 and 0.1 nM for BIAcore S200 instruments, concentrations below these were below the sensitivity thresholds for the instruments. […] Direct binding experiments were fitted to a 1:1 binding site kinetic model, fitting on and off rates, in BIAevaluation software. For competition experiments steady-state responses were determined in BIAevaluation software according to the software defaults in affinity evaluation mode averaging responses for 5 sec. […] All affinity measurements were performed in at least two independent experiments using independent protein preparations.

O=C(c1cc(-c2cc3c(cc2C(=O)N2Cc4ccccc4C[C@H]2CN2CCOCC2)OCO3)n2c1CCCC2)N(c1ccccc1)c1ccc(O)cc1 [S55746]
Raw data values in Figure 3g (SPR response) (S55746 concentration 40, BCL-2 concentration 60 nM, independent experiment 3): 48.7177
Raw data values in Figure 3g (SPR response) (S55746 concentration 40, BCL-2 concentration 70 nM, independent experiment 1): 85.9498
Raw data values in Figure 3g (SPR response) (S55746 concentration 40, BCL-2 concentration 70 nM, independent experiment 2): 301.246
Raw data values in Figure 3g (SPR response) (S55746 concentration 40, BCL-2 concentration 70 nM, independent experiment 3): 49.6061
Raw data values in Figure 3g (SPR response) (S55746 concentration 40, BCL-2 concentration 80 nM, independent experiment 1): 87.455
Raw data values in Figure 3g (SPR response) (S55746 concentration 40, BCL-2 concentration 80 nM, independent experiment 2): 307.892
Raw data values in Figure 3g (SPR response) (S55746 concentration 40, BCL-2 concentration 80 nM, independent experiment 3): 50.2962
Raw data values in Figure 3g (SPR response) (S55746 concentration 40, BCL-2 concentration 100 nM, independent experiment 1): 89.2588
Raw data values in Figure 3g (SPR response) (S55746 concentration 40, BCL-2 concentration 100 nM, independent experiment 2): 318.485
Raw data values in Figure 3g (SPR response) (S55746 concentration 40, BCL-2 concentration 100 nM, independent experiment 3): 51.3212
Raw data values in Figure 3g (SPR response) (S55746 concentration 40, BCL-2 concentration 150 nM, independent experiment 1): 91.8217
Raw data values in Figure 3g (SPR response) (S55746 concentration 40, BCL-2 concentration 150 nM, independent experiment 2): 334.001
Raw data values in Figure 3g (SPR response) (S55746 concentration 40, BCL-2 concentration 150 nM, independent experiment 3): 52.4759
Raw data values in Figure 3g (SPR response) (S55746 concentration 40, BCL-2 concentration 200 nM, independent experiment 1): 93.5739
Raw data values in Figure 3g (SPR response) (S55746 concentration 40, BCL-2 concentration 250 nM, independent experiment 2): 347.773
Raw data values in Figure 3g (SPR response) (S55746 concentration 40, BCL-2 concentration 250 nM, independent experiment 3): 53.5471
Raw data values in Figure 3g (SPR response) (S55746 concentration 60, BCL-2 concentration 10 nM, independent experiment 1): 47.4597
Raw data values in Figure 3g (SPR response) (S55746 concentration 60, BCL-2 concentration 10 nM, independent experiment 2): 98.8052
Raw data values in Figure 3g (SPR response) (S55746 concentration 60, BCL-2 concentration 20 nM, independent experiment 1): 62.0582
Raw data values in Figure 3g (SPR response) (S55746 concentration 60, BCL-2 concentration 20 nM, independent experiment 2): 156.985
Raw data values in Figure 3g (SPR response) (S55746 concentration 60, BCL-2 concentration 30 nM, independent experiment 1): 69.7854
Raw data values in Figure 3g (SPR response) (S55746 concentration 60, BCL-2 concentration 30 nM, independent experiment 2): 196.195
Raw data values in Figure 3g (SPR response) (S55746 concentration 60, BCL-2 concentration 40 nM, independent experiment 1): 76.161
Raw data values in Figure 3g (SPR response) (S55746 concentration 60, BCL-2 concentration 40 nM, independent experiment 2): 224.521
Raw data values in Figure 3g (SPR response) (S55746 concentration 60, BCL-2 concentration 50 nM, independent experiment 1): 79.3118
Raw data values in Figure 3g (SPR response) (S55746 concentration 60, BCL-2 concentration 50 nM, independent experiment 2): 244.821
Raw data values in Figure 3g (SPR response) (S55746 concentration 60, BCL-2 concentration 60 nM, independent experiment 1): 82.6237
Raw data values in Figure 3g (SPR response) (S55746 concentration 60, BCL-2 concentration 60 nM, independent experiment 2): 261.933
Raw data values in Figure 3g (SPR response) (S55746 concentration 60, BCL-2 concentration 70 nM, independent experiment 1): 84.8163
Raw data values in Figure 3g (SPR response) (S55746 concentration 60, BCL-2 concentration 70 nM, independent experiment 2): 275.69
Raw data values in Figure 3g (SPR response) (S55746 concentration 60, BCL-2 concentration 80 nM, independent experiment 1): 85.9361
Raw data values in Figure 3g (SPR response) (S55746 concentration 60, BCL-2 concentration 80 nM, independent experiment 2): 286.55
Raw data values in Figure 3g (SPR response) (S55746 concentration 60, BCL-2 concentration 100 nM, independent experiment 1): 88.8819
Raw data values in Figure 3g (SPR response) (S55746 concentration 60, BCL-2 concentration 100 nM, independent experiment 2): 303.493
Raw data values in Figure 3g (SPR response) (S55746 concentration 60, BCL-2 concentration 150 nM, independent experiment 1): 91.2891
Raw data values in Figure 3g (SPR response) (S55746 concentration 60, BCL-2 concentration 150 nM, independent experiment 2): 325.735
Raw data values in Figure 3g (SPR response) (S55746 concentration 60, BCL-2 concentration 200 nM, independent experiment 1): 93.4484
Raw data values in Figure 3g (SPR response) (S55746 concentration 60, BCL-2 concentration 250 nM, independent experiment 2): 343.304
Raw data values in Figure 3g (SPR response) (S55746 concentration 80, BCL-2 concentration 10 nM, independent experiment 3): 22.8907
Raw data values in Figure 3g (SPR response) (S55746 concentration 80, BCL-2 concentration 20 nM, independent experiment 3): 32.1933
Raw data values in Figure 3g (SPR response) (S55746 concentration 80, BCL-2 concentration 30 nM, independent experiment 3): 37.5379
Raw data values in Figure 3g (SPR response) (S55746 concentration 80, BCL-2 concentration 40 nM, independent experiment 3): 41.1001
Raw data values in Figure 3g (SPR response) (S55746 concentration 80, BCL-2 concentration 50 nM, independent experiment 3): 43.4737
Raw data values in Figure 3g (SPR response) (S55746 concentration 80, BCL-2 concentration 60 nM, independent experiment 3): 45.424
Raw data values in Figure 3g (SPR response) (S55746 concentration 80, BCL-2 concentration 70 nM, independent experiment 3): 46.908
Raw data values in Figure 3g (SPR response) (S55746 concentration 80, BCL-2 concentration 80 nM, independent experiment 3): 48.0972
Raw data values in Figure 3g (SPR response) (S55746 concentration 80, BCL-2 concentration 100 nM, independent experiment 3): 49.7546
Raw data values in Figure 3g (SPR response) (S55746 concentration 80, BCL-2 concentration 150 nM, independent experiment 3): 51.7109
Raw data values in Figure 3g (SPR response) (S55746 concentration 80, BCL-2 concentration 250 nM, independent experiment 3): 53.091
Ki (read-out: S55746 KI (mean), competition vs BIMBH3 SPR surface, mean ± SD, n ≥ 2): 36 nM and 35.7 nM
Ki (read-out: S55746 KI, single independent experiments, independent experiments 1-3): 28.4 nM and 49.8 nM and 29 nM
